Assay results as given in paper PMC6597546, “Identification of a potent benzoxaborole drug candidate for treating cryptosporidiosis” (Nature Communications, 2019).
Several values for one entry are separate records, joined by “and”; a condition that tells them apart may be missing. Equal entries are not always repeated.

Tested on: C. parvum (Bunch Grass Farms Iowa isolate)
Test: Neonatal calf model of cryptosporidiosis
Type: in vivo
Parameters: key to Oocyst Shedding, individual calves / Oocyst Shedding: C. parvum abundance per gram of fecal dry matter (qPCR); key to Fecal Consistency Score, individual calves / Fecal Consistency Score: score 1 = normal, 3 = severely abnormal
Conditions: for Fecal Consistency Score / Oocyst Shedding: 10 mg/kg every 12 h with delayed start
Protocol: All calf efficacy studies were performed as previously described. These studies were approved by the University of Vermont Institutional animal Care and Use Committee, and conducted in compliance with the USDA-APHIS “Blue Book”, available at www.aphis.usda.gov/animal-welfare. Holstein bull calves were acquired at birth from Green Mountain Dairy (Sheldon, VT), given synthetic colostrum with 200 g of IgG (Land O’Lakes, Ardent Hills, MO) and bovine coronavirus and Escherichia coli antibodies (First Defense Bolus, Immuncell Corporation, Portland, ME) within 2 h of birth, and transported to UVM. Calves were group-housed initially, and infected at 24–48 h of age during an interruption in bottle feeding by oral administration of ∼5 × 10^7 C. parvum Iowa isolate oocysts (Bunch Grass Farms, Deary, ID) suspended in 10 mL of water. They were then moved to individual raised pens, and observed twice daily at feeding times for clinical signs, which were quantified according to a previously described standardized scoring rubric. Data on fecal consistency, dehydration and overall health were collected, in each case with a score of 1 being normal and 3 being severely abnormal (scoring rubric in Supplementary Table 2). Clinical microbiologic studies for adventitious infectious agents including Salmonella culture, aerobic bacterial culture with E. coli genotyping, rotavirus, and coronavirus testing were performed on all calves at the onset of diarrhea by the Cornell Animal Health Diagnostic Center (Ithaca, NY). Animals with severe diarrhea or other symptoms were supported aggressively, including with administration of oral electrolytes, intravenous fluids and flunixin meglumine (Banamine, Merck) as needed. […] Daily fecal samples were obtained from collections bins located under each pen. Fecal samples used for parasite quantification were dried at 90 °C until stable in weight, and C. parvum abundance per gram of fecal dry matter was measured using qPCR and the primers Cp18s forward and Cp18s reverse.

CC1(C)OB(O)c2cc(NC(=O)c3ccc(-n4cccn4)cc3Cl)ccc21 [AN7973]
Fecal Consistency Score (Calf 1, Day 2): 1.67
Oocyst Shedding (Calf 1, Day 2): 4028
Fecal Consistency Score (Calf 1, Day 3): 2
Oocyst Shedding (Calf 1, Day 3): 3180923
Fecal Consistency Score (Calf 1, Day 4): 2.33
Oocyst Shedding (Calf 1, Day 4): 4800342
Fecal Consistency Score (Calf 1, Day 5): 1.5
Oocyst Shedding (Calf 1, Day 5): 120115
Fecal Consistency Score (Calf 1, Day 6): 1
Oocyst Shedding (Calf 1, Day 6): 5946
Fecal Consistency Score (Calf 1, Day 7): 1
Oocyst Shedding (Calf 1, Day 7): 4811
Fecal Consistency Score (Calf 1, Day 8): 1
Oocyst Shedding (Calf 1, Day 8): 154
Fecal Consistency Score (Calf 1, Day 9): 1
Oocyst Shedding (Calf 1, Day 9): 1
Fecal Consistency Score (Calf 1, Day 10): 1
Oocyst Shedding (Calf 1, Day 10): 1
Fecal Consistency Score (Calf 1, Day 11): 1
Oocyst Shedding (Calf 1, Day 11): 164
Fecal Consistency Score (Calf 1, Day 12): 1
Oocyst Shedding (Calf 1, Day 12): 1032
Fecal Consistency Score (Calf 1, Day 13): 1
Oocyst Shedding (Calf 1, Day 13): 1
Fecal Consistency Score (Calf 1, Day 14): 1
Oocyst Shedding (Calf 1, Day 14): 1
Fecal Consistency Score (Calf 2, Day 0): 1
Oocyst Shedding (Calf 2, Day 0): 1
Fecal Consistency Score (Calf 2, Day 1): 3
Oocyst Shedding (Calf 2, Day 1): 15983
Fecal Consistency Score (Calf 2, Day 2): 2
Oocyst Shedding (Calf 2, Day 2): 572309
Fecal Consistency Score (Calf 2, Day 3): 2.67
Oocyst Shedding (Calf 2, Day 3): 9928800
Fecal Consistency Score (Calf 2, Day 4): 3
Oocyst Shedding (Calf 2, Day 4): 10753010
Fecal Consistency Score (Calf 2, Day 5): 2.33
Oocyst Shedding (Calf 2, Day 5): 89411
Fecal Consistency Score (Calf 2, Day 6): 1
Oocyst Shedding (Calf 2, Day 6): 36783
Fecal Consistency Score (Calf 2, Day 7): 1
Oocyst Shedding (Calf 2, Day 7): 6676
Fecal Consistency Score (Calf 2, Day 8): 1
Oocyst Shedding (Calf 2, Day 8): 2648
Fecal Consistency Score (Calf 2, Day 9): 1
Oocyst Shedding (Calf 2, Day 9): 2147
Fecal Consistency Score (Calf 2, Day 10): 1
Oocyst Shedding (Calf 2, Day 10): 401
Fecal Consistency Score (Calf 2, Day 11): 1
Oocyst Shedding (Calf 2, Day 11): 10
Fecal Consistency Score (Calf 2, Day 12): 1
Oocyst Shedding (Calf 2, Day 12): 1
Fecal Consistency Score (Calf 2, Day 13): 1
Oocyst Shedding (Calf 2, Day 13): 1
Fecal Consistency Score (Calf 2, Day 14): 1
Oocyst Shedding (Calf 2, Day 14): 1
Fecal Consistency Score (Calf 3, Day 0): 1
Oocyst Shedding (Calf 3, Day 0): 1
Fecal Consistency Score (Calf 3, Day 1): 3
Oocyst Shedding (Calf 3, Day 1): 4675
Fecal Consistency Score (Calf 3, Day 2): 2.33
Oocyst Shedding (Calf 3, Day 2): 376713
Fecal Consistency Score (Calf 3, Day 3): 2.5
Oocyst Shedding (Calf 3, Day 3): 3074178
Fecal Consistency Score (Calf 3, Day 4): 3
Oocyst Shedding (Calf 3, Day 4): 1097033
Fecal Consistency Score (Calf 3, Day 5): 2.33
Oocyst Shedding (Calf 3, Day 5): 172967
Fecal Consistency Score (Calf 3, Day 6): 1.5
Oocyst Shedding (Calf 3, Day 6): 10727
Fecal Consistency Score (Calf 3, Day 7): 1
Oocyst Shedding (Calf 3, Day 7): 1
Fecal Consistency Score (Calf 3, Day 8): 1
Oocyst Shedding (Calf 3, Day 8): 363
Fecal Consistency Score (Calf 3, Day 9): 1
Oocyst Shedding (Calf 3, Day 9): 1134
Fecal Consistency Score (Calf 3, Day 10): 1
Oocyst Shedding (Calf 3, Day 10): 624
Fecal Consistency Score (Calf 3, Day 11): 1
Oocyst Shedding (Calf 3, Day 11): 1
Fecal Consistency Score (Calf 3, Day 12): 1
Oocyst Shedding (Calf 3, Day 12): 1
Fecal Consistency Score (Calf 3, Day 13): 1
Oocyst Shedding (Calf 3, Day 13): 28
Fecal Consistency Score (Calf 3, Day 14): 1
Oocyst Shedding (Calf 3, Day 14): 1
Oocyst Shedding, individual calves (10 mg/kg every 24 h on days 2–8, Day 0): 100 and 331 and 774
Oocyst Shedding, individual calves (10 mg/kg every 24 h on days 2–8, Day 1): 6698 and 100 (2×)
Oocyst Shedding, individual calves (10 mg/kg every 24 h on days 2–8, Day 3): 644594 and 196913 and 724661
Oocyst Shedding, individual calves (10 mg/kg every 24 h on days 2–8, Day 4): 119580 and 31776 and 1355
Oocyst Shedding, individual calves (10 mg/kg every 24 h on days 2–8, Day 5): 573 and 17468 and 8981
Oocyst Shedding, individual calves (10 mg/kg every 24 h on days 2–8, Day 7): 67293 and 6611 and 7598
Oocyst Shedding, individual calves (10 mg/kg every 24 h on days 2–8, Day 9): 54864 and 100 and 1163
Oocyst Shedding, individual calves (10 mg/kg every 24 h on days 2–8, Day 10): 139951 and 100 and 1010
reduction of total burden of fecal C. parvum shedding (AUC) (bovine, in vivo): over 90%
reduction of fecal C. parvum shedding rate (first three days of treatment): nearly five logs
Fecal Consistency Score, individual calves (scale 1 normal to 3 severely abnormal, 5 mg/kg every 12 h on days 2–8, Day 0): 1
Fecal Consistency Score, individual calves (scale 1–3, 5 mg/kg every 12 h on days 2–8, Day 1): 1
Fecal Consistency Score, individual calves (scale 1–3, 5 mg/kg every 12 h on days 2–8, Day 2): 1
Fecal Consistency Score, individual calves (scale 1–3, 5 mg/kg every 12 h on days 2–8, Day 3): 1
Fecal Consistency Score, individual calves (scale 1–3, 5 mg/kg every 12 h on days 2–8, Day 4): 1
Fecal Consistency Score, individual calves (scale 1–3, 5 mg/kg every 12 h on days 2–8, Day 5): 1
Fecal Consistency Score, individual calves (scale 1–3, 5 mg/kg every 12 h on days 2–8, Day 6): 1
Fecal Consistency Score, individual calves (scale 1–3, 5 mg/kg every 12 h on days 2–8, Day 7): 1
Fecal Consistency Score, individual calves (scale 1–3, 5 mg/kg every 12 h on days 2–8, Day 8): 1
Fecal Consistency Score, individual calves (scale 1–3, 5 mg/kg every 12 h on days 2–8, Day 9): 1
Fecal Consistency Score, individual calves (scale 1–3, 5 mg/kg every 12 h on days 2–8, Day 10): 1
Fecal Consistency Score, individual calves (scale 1–3, 10 mg/kg every 24 h on days 2–8, Day 0): 1
Fecal Consistency Score, individual calves (scale 1–3, 10 mg/kg every 24 h on days 2–8, Day 1): 1
Fecal Consistency Score, individual calves (scale 1–3, 10 mg/kg every 24 h on days 2–8, Day 2, 10 mg/kg): 1.33 (2×) and 2.67
Fecal Consistency Score, individual calves (scale 1–3, 10 mg/kg every 24 h on days 2–8, Day 3, 10 mg/kg): 2 (2×) and 2.33
Fecal Consistency Score, individual calves (scale 1–3, 10 mg/kg every 24 h on days 2–8, Day 4, 10 mg/kg): 2.33 and 1.33 (2×)
Fecal Consistency Score, individual calves (scale 1–3, 10 mg/kg every 24 h on days 2–8, Day 5): 1
Fecal Consistency Score, individual calves (scale 1–3, 10 mg/kg every 24 h on days 2–8, Day 6): 1
Fecal Consistency Score, individual calves (scale 1–3, 10 mg/kg every 24 h on days 2–8, Day 7): 1
Fecal Consistency Score, individual calves (scale 1–3, 10 mg/kg every 24 h on days 2–8, Day 8): 1
Fecal Consistency Score, individual calves (scale 1–3, 10 mg/kg every 24 h on days 2–8, Day 9): 1
Fecal Consistency Score, individual calves (scale 1–3, 10 mg/kg every 24 h on days 2–8, Day 10): 1
effect on dehydration (several of the treatment regimens): significantly reduced the overall severity of dehydration
tolerability in calves (twice daily assessment of alertness, interaction, appetite): tolerated AN7973 well
